2 compounds from paper PMC10419416, “Fighting Pseudomonas aeruginosa Infections: Antibacterial and Antibiofilm Activity of D-Q53 CecB, a Synthetic Analog of a Silkworm Natural Cecropin B Variant” (International Journal of Molecular Sciences, 2023) can be followed below.

Non-standard residues stand in square brackets, D forms with d. Residues, ends and D or L forms follow the SMILES beside them. No end group written: not given here.

Format in all cases: cell-based, Pseudomonas aeruginosa
The subject of one assay is P. aeruginosa ATCC 27853. In words: CFU assay of medium over treated 24 h old biofilm. The conditions noted are these: for mean CFUs/mL decrement vs untreated control: 1 MIC, 1 h; for living bacterial cells in the medium, Mean ± SEM: 1 h treatment of 24 h-old biofilm with 1 MIC (2.2 μM), four experiments, control 3.06 ± 2.07 × 10^14.
The subject of assay [1] is P. aeruginosa biofilms (ATCC 25668). In words: Confocal live/dead staining of biofilm-embedded cells. The conditions noted are these: 1 h treatment with 1 MIC (2.2 µM) of 24 h-old biofilm; SYTO 9 / Propidium Iodide. The method, then:
Bacteria cells (1 × 10^6 cells/mL) were grown in Permanox four-wells chamber slide systems (1.8 cm^2/well; Nunc® Lab-Tek® Chamber Slide™ system) at 37 °C for 24 h without agitation to allow biofilm formation. After washing, biofilms were treated with 2.2 μM L- or D-Q53 CecB peptide for 1 h at 37 °C without agitation. Negative controls, treated with LB only, were followed in parallel.
To visualize live/dead bacteria, samples were stained with 12. 5 μM SYTO™ 9 (Thermo Fisher Scientific) (green, total cells) and 70 μM Propidium Iodide (Merck) (red, dead cells) for 30 min. After washing with PBS, samples were mounted in VECTASHIELD® mounting medium (Vector Laboratories) and observed using a Leica TCS SP5 II confocal microscope, using a ×63 oil immersion objective and a digital magnification of ×3. Optical sections (Z-series) were taken at 0.13 μm intervals. For each condition, experiments were repeated at least twice.
To detect bacteria (green), excitation and emission wavelengths were 488 and 500–530 nm, respectively. EPS was visualized using a 405 nm wavelength for excitation and 413–480 nm for emission (blue); to detect proteins or Propidium Iodide (red), a 543 nm wavelength for excitation and 590–610 nm for emission were used. Post-acquisition analyses were performed with Fiji (http://fiji.sc/wiki/index.php, downloaded on 4 April 2022). […]

For assay [2], the system named is P. aeruginosa ATCC 27853 and ATCC 25668 strains. Description: Growth curves with sub-MIC concentrations. The conditions noted are these: growth curves 14 h, OD600, AUC vs untreated; both strains; 1 MIC = 2.2 μM. The method, then: Microbial suspensions in LB medium (positive controls) and wells with LB medium only (negative controls) were followed in parallel. Plates were incubated at 37 °C with agitation (300 rpm), and the absorbance was measured every 2 h for 14 h at 600 nm. For each time point, a ΔOD600 was determined by subtracting the OD600 recorded at time 0 from those obtained at the different time-points. To establish the peptide concentration not inhibiting bacterial growth, for each treatment, the Area Under the Curve (AUC) was calculated and compared to that of untreated controls.
Supplementary Figure S3. Growth curves of P. aeruginosa treated with of L-Q 53 CecB and D-Q 53 CecB peptides at sub-MIC concentrations. ATCC 27853 strain treated with (A) L-Q 53 CecB and (B) D-Q 53 CecB. ATCC 25668 strain treated with (C) L-Q 53 CecB and (D) D-Q 53 CecB. Bacteria treated with 1 MIC L- or D- Q53 CecB peptides and untreated bacteria represent positive and negative controls, respectively. One-w ay ANOVA followed by post-h oc Dunnett’s tests […]
samples and negative controls [A TCC 27853: (A) F4, 10 = 257.8, p < 0.0001; 1/2 MIC L-Q 53 CecB vs negative controls:
Dunnett’s test p > 0.05, ns; (B) F 4,10 = 256.9, p < 0.0001; 1/4 MIC D-Q 53 CecB vs negative controls: Dunnett’s test p > 0.05, […]
= 43.58, p < 0.0001; 1/4 MIC D-Q 53 CecB vs negative controls: Dunnett’s test p > 0.05, ns]. […]

Assay [3] concerns P. aeruginosa ATCC 25668, mucoid strain. The conditions noted are these: for inhibitory effect on biofilm formation: 1/32 and 1/64 MIC, 24 h. Here is the method: (§1) An ON bacterial culture was diluted to 2 × 10^6 cells/mL in an LB medium. 50 µL/well were seeded in a sterile non-treated polystyrene 96-well plate (Corning) and added with 50 µL LB medium containing serial dilutions of each compound (final concentrations of L- and D-Q53 CecB peptides: from 0.034 to 17.6 µM; final concentrations of tobramycin: 0.27 and 0.53 μM, and from 2.14 to 17 μM). Each condition was tested in three-six replicates. Wells containing untreated bacteria (negative controls) or LB medium only (blank) were followed in parallel. Each plate was incubated for 24 h at 37 °C without agitation. After washing twice, samples were stained with a 0.1% crystal violet solution for 20 min, washed three times, and incubated in 30% acetic acid for 20 min, as in [74]. Plates were read at 595 nm using a microplate reader. For each sample, the biofilm biomass percentage was calculated relative to that of the untreated control showing the highest OD value, set equal to 100%. Each experiment was performed at least twice.

The test system of assay [4] is P. aeruginosa ATCC 27853, non-mucoid strain. The conditions noted are these: for inhibitory effect on biofilm formation: 1/32 and 1/64 MIC, 24 h; for decrement in biofilm biomass (inhibition of biofilm formation): ATCC 27853, 24 h. The method, then: as §1
Assay [5] concerns P. aeruginosa ATCC 25668 strain. Description: Motility assay (swimming, swarming, twitching). As to conditions: 1/2 MIC L-Q53 CecB or 1/4 MIC D-Q53 CecB; for effect on swimming motility: 0.3% agar LB plates; for effect on swarming motility: 0.5% agar LB plates; for effect on twitching motility (bacterial growth area): 1% agar LB plates. The method, then: The motility assay was performed as in [36], with minor modifications. […] Inocula were performed with a sterile toothpick (i) within the medium to detect swimming, (ii) on the top of the medium to detect swarming, and (iii) on the bottom of the plate to detect twitching. Bacteria grown and plated in the absence of any peptide were processed as negative controls. Plates were incubated at 30 °C (for swimming and swarming) or 37 °C (for twitching) and monitored for 24–48 h. Plate images were taken with a digital camera. Post-acquisition analyses were performed with Fiji, an open-source image-processing package based on ImageJ (http://fiji.sc/wiki/index.php, downloaded on 4 April 2022). Swimming, swarming, and twitching data were obtained by calculating the area of the growing zone over the total area of each plate. Values were expressed as percentages. Each type of motility was evaluated in at least four independent experiments, each with one replica per condition.

With `CC[C@@H](C)[C@@H](NC(=O)[C@@H](C)NC(=O)[C@@H](CCCCN)NC(=O)[C@@H](C)NC(=O)[C@@H](CO)NC(=O)CNC(=O)[C@@H](CC(C)C)NC(=O)[C@H](NC(=O)[C@@H](CCC(N)=O)NC(=O)[C@H](NC(=O)[C@@H](C)NC(=O)[C@H]1CCCN1C(=O)CNC(=O)[C@@H](C)NC(=O)[C@@H](CCCCN)NC(=O)[C@H](NC(=O)[C@H](NC(=O)CNC(=O)[C@@H](CC(=O)O)NC(=O)[C@@H](CCCNC(=N)N)NC(=O)[C@H](NC(=O)[C@@H](CC(N)=O)NC(=O)[C@@H](CCCNC(=N)N)NC(=O)CNC(=O)[C@@H](CCSC)NC(=O)[C@@H](CCCCN)NC(=O)[C@@H](CCC(=O)O)NC(=O)[C@H](NC(=O)[C@@H](CCCCN)NC(=O)[C@@H](CCCCN)NC(=O)[C@@H](Cc1ccccc1)NC(=O)[C@H](NC(=O)[C@@H](CCCCN)NC(=O)[C@@H](Cc1c[nH]c2ccccc12)NC(=O)[C@H](N)CCCNC(=N)N)[C@H](C)CC)[C@H](C)CC)[C@H](C)CC)[C@H](C)CC)C(C)C)[C@H](C)CC)C(C)C)C(N)=O` [D-Q53 CecB] (H-[dR][dW][dK][dI][dF][dK][dK][dI][dE][dK][dM]G[dR][dN][dI][dR][dD]G[dI][dV][dK][dA]G[dP][dA][dI][dQ][dV][dL]G[dS][dA][dK][dA][dI]-NH2; N-terminus and C-terminus assumed), in the assay with P. aeruginosa ATCC 27853, the “mean CFUs/mL decrement vs untreated control” value is 4 orders of magnitude and the “living bacterial cells in the medium, Mean ± SEM” value is 1.07 ± 1.06 × 10^10 CFUs/mL. Further, the “red/green (dead/total) cell ratio vs untreated controls” value in assay [1] is given as “Significant increments”. The “sub-MIC concentration not inhibiting bacterial growth” value in assay [2] is given as 1/4. Moreover, the “inhibitory effect on biofilm formation” value in assay [3] is recorded as “did not show any significant inhibitory effect”. In assay [3] (ATCC 25668, 24 h), the “decrement in biofilm biomass (inhibition of biofilm formation)” value was 30 to 44% and the “mean decrement in biofilm biomass (inhibition of biofilm formation)” value worked out at 93%. Besides, in assay [4], the “inhibitory effect on biofilm formation” value was “did not show any significant inhibitory effect” and the “decrement in biofilm biomass (inhibition of biofilm formation)” value lay within 30 to 60%. In addition, in assay [5], the “effect on swimming motility” value is “not able to affect”, the “effect on swarming motility” value was “not able to affect” and the “effect on twitching motility (bacterial growth area)” value is “significant reductions”.

Take “RWKIFKKIEKMGRNIRDGIVKAGPAIQVLGSAKAI-NH2 [L-Q53 CecB]”: in the assay on P. aeruginosa ATCC 27853, the “mean CFUs/mL decrement vs untreated control” value is given as 6 orders of magnitude and the “living bacterial cells in the medium, Mean ± SEM” value is reported as 7.03 ± 4.10 × 10^8 CFUs/mL. Besides, the “red/green (dead/total) cell ratio vs untreated controls” value in assay [1] is on record as “Significant increments”. The “sub-MIC concentration not inhibiting bacterial growth” value in assay [2] is 1/2. In assay [3], the “inhibitory effect on biofilm formation” value is “did not show any significant inhibitory effect”. In addition, in assay [3] (ATCC 25668, 24 h), the “decrement in biofilm biomass (inhibition of biofilm formation)” value is reported as 30 to 44%. In assay [4], the “inhibitory effect on biofilm formation” value is “did not show any significant inhibitory effect” and the “decrement in biofilm biomass (inhibition of biofilm formation)” value was 30 to 60%. In assay [5], the “effect on swimming motility” value was “not able to affect”, the “effect on swarming motility” value is “not able to affect” and the “effect on twitching motility (bacterial growth area)” value is on record as “no effect”.
